Results taken from US11673899B2, “Crystal form of thieno[2,3-c]pyridazine-4(1H)-one compound, preparation method therefor and use thereof” (ZHANGZHOU PIEN TZE HUANG PHARMACEUTICAL CO., LTD., priority 2019, dated 2023).

How the values were obtained:
[1] = Stability of crystal form to light, heat and humidity; format: physicochemical; settings: solid crystal form
[2] = system: HFD+CCl4-induced NASH mouse model; assay: In vivo pharmacodynamic study in HFD+CCl4-induced NASH mouse model; settings: HFD+CCl4 mice; 0.5, 1, 3 mg/kg by gavage QD day 0 to day 27; reference I-181 3 mg/kg
From the text: To study the effect of a compound on improving NASH and liver fibrosis in an HFD+CCl4 mouse model, with I-181 as a reference compound.
I-181 is an acetyl-CoA carboxylase inhibitor and is currently undergoing a phase II clinical study on non-alcoholic fatty liver disease (NAFLD). The HFD+CCl4 mouse model used in this study is an animal model that simulates human non-alcoholic fatty liver disease evolving into NASH. High-fat diet leads to fat accumulation and steatosis in liver cells; CCl4 (intraperitoneal injection, twice a week) simulates the “second hit” of liver injury.
The modeling for this experiment included two steps: high-fat diet feeding and CCl4 induction. Firstly, the mice were fed with high-fat diet to induce non-alcoholic fatty liver, and the mice weighing more than (>) 38 g were selected and continuously fed with high-fat diet, accompanied by the intraperitoneal injection of 25% CCl4 ([…], twice a week, for a total of four weeks). The day of starting CCl4 administration was set as day 0, and the time of starting CCl4 administration was set as hour 0. On the day of starting CCl4 administration, the administration by gavage was started, and the administration volume of each group was 5 mL/kg, once a day for 4 weeks (28 days). The injection time of CCl4 should be more than 4 hours apart from the first administration time point of the day. […]

COc1ccccc1[C@H](Cn1nc(C(C)(C)C(=O)O)c(=O)c2c(C)c(-c3ncco3)sc21)OC1CCOCC1
Stability (light, heat and humidity) [1]: stable, and less affected by light, heat and humidity

COc1ccccc1[C@H](Cn1nc(C(C)(C)C(=O)O)c(=O)c2c(C)c(-c3ncco3)sc21)OC1CCOCC1 [Compound of formula (I)]
Efficacy in NAS [2]: the same efficacy as the reference compound at a higher dose | Efficacy in fibrosis [2]: the same efficacy as the reference compound at a higher dose
